Tests used:
[1] = Emulsion stability testing of nonionic emulsifiers, aromatic solvent series; assay type: physicochemical; design: key to 24 h separation, appearance / 1 h separation, appearance / 1 h separation, amount: C = creamy; CO = creamy oil; O = oil; GC = gritty cream; NS = no separation; OC = oily cream; key to Spon. (spontaneity): G = good; F = fair; P = poor
Protocol: (§1) Nonionic samples contain a low amount of water (<1%) and are prepared as emulsifiable concentrates with three pesticides using two different solvent systems. In the aromatic solvent series, the nonionic sample replaces Toximul® 8240 (castor oil ethoxylate, 36 POE, Stepan), and in the Hallcomid™ (N,N-dimethylcaprylamide/N,N-dimethylcapramide, Stepan) solvent series, the nonionic sample replaces Ninex® MT-630F.
Sample preparation: Ninate® 60E (calcium alkylbenzenesulfonate, Stepan) and the test sample are stirred until homogeneous. […] Controls 1-3 are made by using Toximul 8240 in the amounts indicated instead of the nonionic sample.
Formulations: • 1. Bifenthrin, 240 g/L (2.99 g), Aromatic 100 (ExxonMobil, 8.05 g), Ninate 60E (0.38 g), and nonionic sample or Toximul 8240 (0.58 g). • 2. 2,4-D ester, 480 g/L (8.90 g), Exxsol® D-110 (ExxonMobil, 2.50 g), Ninate 60E (0.36 g), and nonionic sample or Toximul 8240 (0.24 g). • 3. Tebuconazole, 360 g/L (4.45 g), N-methyl-2-pyrrolidone (6.35 g), Ninate 60E (0.48 g), nonionic sample or Toximul 8240 (0.72 g).
(§2) Emulsion Stability Testing
(§3) A Mohr pipette is used to feed pesticide/surfactant concentrates to each cylinder.

[2] = Emulsion stability testing of nonionic emulsifiers, Hallcomid solvent series; assay type: physicochemical; design: key to 24 h separation, appearance / 1 h separation, appearance / 1 h separation, amount: C = creamy; CO = creamy oil; O = oil; GC = gritty cream; NS = no separation; OC = oily cream; key to Spon. (spontaneity): G = good; F = fair; P = poor
Protocol: as §1
(§4) Hallcomid Solvent Series.
(§5) Sample preparation: The surfactants are combined and stirred until homogeneous, with the nonionic sample melted if needed prior to combination. Controls 1-3 are made by using Ninex MT-630F in the amounts indicated instead of the nonionic sample.
as §2, §3

[3] = Surfactant phase behavior study (cross-polarized microscopy); assay type: physicochemical; settings: room temperature, in deionized water
Protocol: Phase behavior is observed using an Olympus BH-2 cross-polarized microscope at 100-400× and room temperature (20° C. to 22° C.). The inventive monounsaturated alcohol ethoxylates are compared with their saturated analogs.
Samples are prepared by diluting the most concentrated product gradually with deionized water. When the surfactant concentration approaches a phase transition, the concentration is varied at 2-4% intervals to estimate the phase boundary. The actives level reported in Table 4 for each phase boundary is within ±5% of the true boundary.
Samples are loaded between a microscope slide and cover glass and are allowed to equilibrate before observation. Microscopic texture is analyzed and used to determine the phase. For some samples, an AR 2000 rheometer (TA Instruments) is used to measure viscosity at 25° C. to further verify phase behavior.

[4] = 0.4 wt. % active, 342 ppm hard water
Protocol: Surfactant solution (100 mL) is carefully transferred to a stainless-steel mixing cup, then mixed at high speed (27K rpm) using a Hamilton Beach mixer for 10 s. The contents are quickly poured into a 100-mL graduated cylinder to the 100-mL mark, and a stopwatch is immediately started. The amount of liquid settling in the cylinder is recorded every 15 s for 4 min. Less liquid drained indicates greater foam stability.

[5] = Emulsion stability testing of nonionic emulsifiers, Hallcomid solvent series; assay type: physicochemical; design: key: C = creamy; CO = creamy oil; O = oil; GC = gritty cream; NS = no separation; OC = oily cream
Protocol: as §1, §4, §5, §2, §3

[6] = 2,4-D ester 480 g/L in Exxsol D-110, 34 ppm water
[7] = 2,4-D ester 480 g/L in Exxsol D-110, 1000 ppm water
[8] = Bifenthrin 240 g/L in Aromatic 100, 34 ppm water
[9] = Bifenthrin 240 g/L in Aromatic 100, 1000 ppm water
[10] = Tebuconazole 360 g/L in N-methyl-2-pyrrolidone, 34 ppm water
[11] = Tebuconazole 360 g/L in N-methyl-2-pyrrolidone, 1000 ppm water
[12] = 2,4-D diester 480 g/L in Hallcomid M-8-10, 34 ppm water
[13] = 2,4-D diester 480 g/L in Hallcomid M-8-10, 1000 ppm water
[14] = Bifenthrin 240 g/L in Hallcomid M-8-10, 34 ppm water
[15] = Bifenthrin 240 g/L in Hallcomid M-8-10, 1000 ppm water
[16] = Tebuconazole 360 g/L in Hallcomid M-8-10, 34 ppm water
[17] = Tebuconazole 360 g/L in Hallcomid M-8-10, 1000 ppm water

C=CCCCCCCCCOCCOCCOCCOCCOCCOCCOCCO [A10-13]
1 h separation, amount [1, 6]: 2.8 mL | 1 h separation, appearance [1, 6]: C | 24 h separation, amount [1, 6]: 4.6 mL | 24 h separation, appearance [1, 6]: C | Spon. (spontaneity) [1, 6]: G | 1 h separation, amount [1, 7]: 3.9 mL | 1 h separation, appearance [1, 7]: CO | 24 h separation, amount [1, 7]: 1 O, 4 CO | Spon. (spontaneity) [1, 7]: F | 1 h separation, amount [1, 8]: 3 mL | 1 h separation, appearance [1, 8]: C | 24 h separation, amount [1, 8]: 5.8 mL | 24 h separation, appearance [1, 8]: C | Spon. (spontaneity) [1, 8]: F | 1 h separation, amount [1, 9]: NS | 24 h separation, amount [1, 9]: 2.6 mL | 24 h separation, appearance [1, 9]: O | Spon. (spontaneity) [1, 9]: G | 1 h separation, amount [1, 10]: 1.5 CO, 0.5 C | 24 h separation, amount [1, 10]: 2.8 mL | 24 h separation, appearance [1, 10]: CO | Spon. (spontaneity) [1, 10]: P | 1 h separation, amount [1, 11]: 2.1 mL | 1 h separation, appearance [1, 11]: CO | 24 h separation, amount [1, 11]: 3.5 mL | 24 h separation, appearance [1, 11]: CO | Spon. (spontaneity) [1, 11]: P | 1 h separation, amount [2, 12]: 4.5 mL | 1 h separation, appearance [2, 12]: C | 24 h separation, amount [2, 12]: 8.2 mL | 24 h separation, appearance [2, 12]: C | Spon. (spontaneity) [2, 12]: P | 1 h separation, amount [2, 13]: 5 mL | 1 h separation, appearance [2, 13]: C | 24 h separation, amount [2, 13]: 7.8 mL | 24 h separation, appearance [2, 13]: C | Spon. (spontaneity) [2, 13]: F | 1 h separation, amount [2, 14]: NS | Spon. (spontaneity) [2, 14]: G | 1 h separation, amount [2, 15]: 6.4 mL | 1 h separation, appearance [2, 15]: CO | 24 h separation, amount [2, 15]: 6 mL | 24 h separation, appearance [2, 15]: O | Spon. (spontaneity) [2, 15]: F | 1 h separation, amount [2, 16]: 2.1 mL | 1 h separation, appearance [2, 16]: C | 24 h separation, amount [2, 16]: 4.9 mL | 24 h separation, appearance [2, 16]: C | Spon. (spontaneity) [2, 16]: F | 1 h separation, amount [2, 17]: 3 mL | 1 h separation, appearance [2, 17]: C | 24 h separation, amount [2, 17]: 5.5 mL | 24 h separation, appearance [2, 17]: C | Spon. (spontaneity) [2, 17]: F | Isotropic Clear phase region [3]: 0-100 % Actives Level | Liquid volume at drain time 0.5 min [4]: 0.50 mL | Liquid volume at drain time 1.0 min [4]: 2.25 mL | Liquid volume at drain time 1.5 min [4]: 4.00 mL | Liquid volume at drain time 2.0 min [4]: 6.00 mL | Liquid volume at drain time 2.5 min [4]: 7.50 mL | Liquid volume at drain time 3.0 min [4]: 9.50 mL | Liquid volume at drain time 3.5 min [4]: 11.50 mL | Liquid volume at drain time 4.0 min [4]: 13.25 mL | 24 h separation, amount [5, 14]: NS

C=CCCCCCCCCOCCOCCOCCOCCOCCOCCOCCOCCOCCOCCOCCOCCOCCOCCOCCO [A10-16]
1 h separation, amount [1, 6]: 2.6 mL | 1 h separation, appearance [1, 6]: C | 24 h separation, amount [1, 6]: 5 mL | 24 h separation, appearance [1, 6]: C | Spon. (spontaneity) [1, 6]: P | 1 h separation, amount [1, 7]: 2.8 mL | 1 h separation, appearance [1, 7]: C | 24 h separation, amount [1, 7]: 3.9 mL | 24 h separation, appearance [1, 7]: C | Spon. (spontaneity) [1, 7]: P | 1 h separation, amount [1, 8]: 7 mL | 1 h separation, appearance [1, 8]: C | 24 h separation, amount [1, 8]: 7 mL | 24 h separation, appearance [1, 8]: C | Spon. (spontaneity) [1, 8]: P | 1 h separation, amount [1, 9]: 6 mL | 1 h separation, appearance [1, 9]: C | 24 h separation, amount [1, 9]: 4.8 mL | 24 h separation, appearance [1, 9]: CO | Spon. (spontaneity) [1, 9]: P | 1 h separation, amount [1, 10]: 1 mL | 1 h separation, appearance [1, 10]: C | 24 h separation, amount [1, 10]: 3.5 mL | 24 h separation, appearance [1, 10]: CO | Spon. (spontaneity) [1, 10]: P | 1 h separation, amount [1, 11]: 1.2 mL | 1 h separation, appearance [1, 11]: C | 24 h separation, amount [1, 11]: 2 mL | 24 h separation, appearance [1, 11]: CO | Spon. (spontaneity) [1, 11]: P | 1 h separation, amount [2, 12]: 4.4 mL | 1 h separation, appearance [2, 12]: C | 24 h separation, amount [2, 12]: 8.5 mL | 24 h separation, appearance [2, 12]: C | Spon. (spontaneity) [2, 12]: P | 1 h separation, amount [2, 13]: 4.8 mL | 1 h separation, appearance [2, 13]: C | 24 h separation, amount [2, 13]: 7.6 mL | 24 h separation, appearance [2, 13]: C | Spon. (spontaneity) [2, 13]: P | 1 h separation, amount [2, 14]: NS | Spon. (spontaneity) [2, 14]: G | 1 h separation, amount [2, 15]: 5.5 mL | 1 h separation, appearance [2, 15]: CO | 24 h separation, amount [2, 15]: 5.4 mL | 24 h separation, appearance [2, 15]: O | Spon. (spontaneity) [2, 15]: F | 1 h separation, amount [2, 16]: 1 mL | 1 h separation, appearance [2, 16]: C | Spon. (spontaneity) [2, 16]: F | 1 h separation, amount [2, 17]: 2 mL | 1 h separation, appearance [2, 17]: C | 24 h separation, amount [2, 17]: 4.7 mL | 24 h separation, appearance [2, 17]: C | Spon. (spontaneity) [2, 17]: F | Paste phase region [3]: 93-100 % Actives Level | 24 h separation, amount [5, 14]: NS | 24 h separation, amount [5, 16]: NS

Reference: patent US9708251B2, “Unsaturated fatty alcohol alkoxylates from natural oil metathesis” (Stepan Company, priority 2012, dated 2017)
